Results taken from paper PMC3445516 (PLoS ONE, 2012).

Tests used:
Test in all cases: Ambit kinase profiling, competition binding
TAK1 = target: T1, TAK1 (Homo sapiens, UniProt O43318); conditions: compound concentration 10 uM, read-out: Percent Competition
T1 construct: purchased Ambit Biosciences (KINOMEscan)
Excerpt: (§1) Supplement pone.0044653.s004.xls, sheet "Compound 122" | column: Percent Competition

TEC = target: T2, TEC (Homo sapiens, UniProt P42680); conditions: compound concentration 10 uM, read-out: Percent Competition
T2 construct: purchased Ambit Biosciences (KINOMEscan)
Excerpt: as §1

PRKR = target: T3, PRKR (Homo sapiens, UniProt P19525); conditions: compound concentration 10 uM
T3 construct: purchased Ambit Biosciences (KINOMEscan)
Excerpt: as §1

MERTK = target: T4, MERTK (Homo sapiens, UniProt Q12866); conditions: compound concentration 10 uM, read-out: Percent Competition
T4 construct: purchased Ambit Biosciences (KINOMEscan)
Excerpt: as §1

ACVR2A = target: T5, ACVR2A (Homo sapiens, UniProt P27037); conditions: compound concentration 10 uM, read-out: Percent Competition
T5 construct: purchased Ambit Biosciences (KINOMEscan)
Excerpt: as §1

[1] = target: T6, RPS6KA1(Kin.Dom.1-N-terminal) (Homo sapiens, UniProt Q15418); conditions: compound concentration 10 uM, read-out: Percent Competition
T6 construct: RPS6KA1(Kin.Dom.1-N-terminal); purchased Ambit Biosciences (KINOMEscan)
Excerpt: as §1

IKK-beta = target: T7, IKK-beta (Homo sapiens, UniProt O14920); conditions: compound concentration 10 uM, read-out: Percent Competition
T7 construct: purchased Ambit Biosciences (KINOMEscan)
Excerpt: as §1

MAP4K2 = target: T8, MAP4K2 (Homo sapiens, UniProt Q12851); conditions: compound concentration 10 uM, read-out: Percent Competition
T8 construct: purchased Ambit Biosciences (KINOMEscan)
Excerpt: as §1

NEK1 = target: T9, NEK1 (Homo sapiens, UniProt Q96PY6); conditions: compound concentration 10 uM, read-out: Percent Competition
T9 construct: purchased Ambit Biosciences (KINOMEscan)
Excerpt: as §1

PHKG1 = target: T10, PHKG1 (Homo sapiens, UniProt Q16816); conditions: compound concentration 10 uM, read-out: Percent Competition
T10 construct: purchased Ambit Biosciences (KINOMEscan)
Excerpt: as §1

FES = target: T11, FES (Homo sapiens, UniProt P07332); conditions: compound concentration 10 uM, read-out: Percent Competition
T11 construct: purchased Ambit Biosciences (KINOMEscan)
T11 sequence (P07332 whole entry): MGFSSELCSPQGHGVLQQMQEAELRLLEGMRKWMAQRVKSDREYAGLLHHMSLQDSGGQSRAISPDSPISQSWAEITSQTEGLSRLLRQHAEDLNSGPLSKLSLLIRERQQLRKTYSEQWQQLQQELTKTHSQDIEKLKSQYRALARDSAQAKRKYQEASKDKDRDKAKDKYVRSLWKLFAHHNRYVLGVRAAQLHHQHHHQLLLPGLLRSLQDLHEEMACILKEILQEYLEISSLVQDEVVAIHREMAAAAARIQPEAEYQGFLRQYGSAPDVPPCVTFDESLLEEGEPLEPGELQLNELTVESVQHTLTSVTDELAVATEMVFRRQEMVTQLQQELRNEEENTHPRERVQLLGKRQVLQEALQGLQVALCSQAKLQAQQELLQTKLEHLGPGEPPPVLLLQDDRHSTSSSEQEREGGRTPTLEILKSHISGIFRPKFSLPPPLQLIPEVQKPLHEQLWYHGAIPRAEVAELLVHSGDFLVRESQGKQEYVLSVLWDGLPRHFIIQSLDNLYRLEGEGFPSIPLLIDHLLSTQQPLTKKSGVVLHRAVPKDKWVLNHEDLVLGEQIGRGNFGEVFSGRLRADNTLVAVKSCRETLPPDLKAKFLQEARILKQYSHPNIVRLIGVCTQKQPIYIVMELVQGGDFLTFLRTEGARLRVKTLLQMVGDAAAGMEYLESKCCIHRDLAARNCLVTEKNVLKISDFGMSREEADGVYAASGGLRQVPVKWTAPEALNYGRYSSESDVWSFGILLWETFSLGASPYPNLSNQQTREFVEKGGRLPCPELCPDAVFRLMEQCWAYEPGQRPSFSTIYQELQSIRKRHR
Excerpt: as §1

CHEK2 = target: T12, CHEK2 (Homo sapiens, UniProt O96017); conditions: compound concentration 10 uM, read-out: Percent Competition
T12 construct: purchased Ambit Biosciences (KINOMEscan)
Excerpt: as §1

DMPK = target: T13, DMPK (Homo sapiens, UniProt Q09013); conditions: compound concentration 10 uM, read-out: Percent Competition
T13 construct: purchased Ambit Biosciences (KINOMEscan)
Excerpt: as §1

DCAMKL3 = target: T14, DCAMKL3 (Homo sapiens, UniProt Q9C098); conditions: compound concentration 10 uM, read-out: Percent Competition
T14 construct: purchased Ambit Biosciences (KINOMEscan)
Excerpt: as §1

SIK2 = target: T15, SIK2 (Homo sapiens, UniProt Q9H0K1); conditions: compound concentration 10 uM, read-out: Percent Competition
T15 construct: purchased Ambit Biosciences (KINOMEscan)
Excerpt: as §1

PLK1 = target: T16, PLK1 (Homo sapiens, UniProt P53350); conditions: compound concentration 10 uM, read-out: Percent Competition
T16 construct: purchased Ambit Biosciences (KINOMEscan)
Excerpt: as §1

PIK3C2B = target: T17, PIK3C2B (Homo sapiens, UniProt O00750); conditions: compound concentration 10 uM, read-out: Percent Competition
T17 construct: purchased Ambit Biosciences (KINOMEscan)
T17 sequence (O00750 whole entry): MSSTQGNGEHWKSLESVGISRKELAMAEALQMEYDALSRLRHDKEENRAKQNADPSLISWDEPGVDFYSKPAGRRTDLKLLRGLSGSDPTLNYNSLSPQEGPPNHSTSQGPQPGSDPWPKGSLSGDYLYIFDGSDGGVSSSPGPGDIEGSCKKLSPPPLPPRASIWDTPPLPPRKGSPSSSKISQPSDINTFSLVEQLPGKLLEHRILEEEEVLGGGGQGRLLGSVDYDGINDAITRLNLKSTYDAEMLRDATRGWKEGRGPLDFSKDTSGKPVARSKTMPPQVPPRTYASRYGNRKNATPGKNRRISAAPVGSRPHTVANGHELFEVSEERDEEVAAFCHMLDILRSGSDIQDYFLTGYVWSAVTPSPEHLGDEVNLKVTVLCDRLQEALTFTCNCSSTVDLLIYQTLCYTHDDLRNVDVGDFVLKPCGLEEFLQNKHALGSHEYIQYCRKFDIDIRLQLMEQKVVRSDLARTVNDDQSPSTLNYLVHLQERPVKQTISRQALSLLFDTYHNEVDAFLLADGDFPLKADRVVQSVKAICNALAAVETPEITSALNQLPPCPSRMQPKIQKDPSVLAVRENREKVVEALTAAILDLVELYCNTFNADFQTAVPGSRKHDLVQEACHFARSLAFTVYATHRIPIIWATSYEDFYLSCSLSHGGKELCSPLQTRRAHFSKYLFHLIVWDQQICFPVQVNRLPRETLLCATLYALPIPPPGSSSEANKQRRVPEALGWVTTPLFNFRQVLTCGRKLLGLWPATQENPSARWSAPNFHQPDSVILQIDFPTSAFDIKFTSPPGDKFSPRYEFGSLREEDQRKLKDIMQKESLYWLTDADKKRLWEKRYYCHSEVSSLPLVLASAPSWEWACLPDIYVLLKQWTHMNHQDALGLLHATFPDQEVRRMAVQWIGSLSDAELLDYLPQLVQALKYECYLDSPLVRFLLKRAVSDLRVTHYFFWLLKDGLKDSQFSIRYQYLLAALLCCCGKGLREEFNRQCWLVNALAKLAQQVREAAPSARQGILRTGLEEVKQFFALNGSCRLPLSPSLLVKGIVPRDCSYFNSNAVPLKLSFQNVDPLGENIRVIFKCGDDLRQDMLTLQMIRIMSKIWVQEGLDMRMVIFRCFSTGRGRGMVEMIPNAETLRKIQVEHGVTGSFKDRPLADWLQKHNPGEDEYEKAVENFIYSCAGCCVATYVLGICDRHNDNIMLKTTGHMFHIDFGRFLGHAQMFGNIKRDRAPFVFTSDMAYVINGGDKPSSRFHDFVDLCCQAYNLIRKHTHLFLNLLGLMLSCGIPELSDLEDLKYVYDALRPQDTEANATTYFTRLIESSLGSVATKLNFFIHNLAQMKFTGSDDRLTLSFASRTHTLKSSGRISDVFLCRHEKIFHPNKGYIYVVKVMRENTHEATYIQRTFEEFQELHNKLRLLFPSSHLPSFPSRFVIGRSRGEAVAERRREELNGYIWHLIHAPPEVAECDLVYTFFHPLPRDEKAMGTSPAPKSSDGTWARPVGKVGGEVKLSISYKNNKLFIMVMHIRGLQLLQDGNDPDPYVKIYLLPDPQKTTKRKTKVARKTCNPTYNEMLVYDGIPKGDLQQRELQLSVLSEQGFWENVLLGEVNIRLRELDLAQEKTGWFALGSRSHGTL
Excerpt: as §1

AAK1 = target: T18, AAK1 (Homo sapiens, UniProt Q2M2I8); conditions: compound concentration 10 uM, read-out: Percent Competition
T18 construct: purchased Ambit Biosciences (KINOMEscan)
Excerpt: as §1

ANKK1 = target: T19, ANKK1 (Homo sapiens, UniProt Q8NFD2); conditions: compound concentration 10 uM, read-out: Percent Competition
T19 construct: purchased Ambit Biosciences (KINOMEscan)
Excerpt: as §1

PRKG1 = target: T20, PRKG1 (Homo sapiens, UniProt Q13976); conditions: compound concentration 10 uM, read-out: Percent Competition
T20 construct: purchased Ambit Biosciences (KINOMEscan)
T20 sequence (Q13976 whole entry): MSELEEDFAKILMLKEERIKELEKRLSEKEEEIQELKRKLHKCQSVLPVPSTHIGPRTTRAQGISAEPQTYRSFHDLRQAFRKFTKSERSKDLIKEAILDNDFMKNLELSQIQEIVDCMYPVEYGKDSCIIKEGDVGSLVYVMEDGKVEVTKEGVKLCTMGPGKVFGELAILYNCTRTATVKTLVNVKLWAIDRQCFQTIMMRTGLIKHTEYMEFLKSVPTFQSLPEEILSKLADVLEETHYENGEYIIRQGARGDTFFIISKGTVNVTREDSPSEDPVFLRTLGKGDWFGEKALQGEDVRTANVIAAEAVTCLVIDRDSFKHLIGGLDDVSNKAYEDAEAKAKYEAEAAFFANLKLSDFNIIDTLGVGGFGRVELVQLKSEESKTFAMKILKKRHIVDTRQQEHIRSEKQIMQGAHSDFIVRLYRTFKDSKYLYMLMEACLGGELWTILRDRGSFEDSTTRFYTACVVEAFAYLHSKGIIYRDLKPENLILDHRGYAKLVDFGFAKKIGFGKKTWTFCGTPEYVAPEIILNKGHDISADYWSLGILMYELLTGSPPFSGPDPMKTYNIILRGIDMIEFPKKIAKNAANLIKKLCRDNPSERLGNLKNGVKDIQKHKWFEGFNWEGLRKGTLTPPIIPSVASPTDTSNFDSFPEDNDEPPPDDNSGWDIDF
Excerpt: as §1

PIK3CG = target: T21, PIK3CG (Homo sapiens, UniProt P48736); conditions: compound concentration 10 uM, read-out: Percent Competition
T21 construct: purchased Ambit Biosciences (KINOMEscan)
Excerpt: as §1

CAMKK2 = target: T22, CAMKK2 (Homo sapiens, UniProt Q96RR4); conditions: compound concentration 10 uM, read-out: Percent Competition
T22 construct: purchased Ambit Biosciences (KINOMEscan)
T22 sequence (Q96RR4 whole entry): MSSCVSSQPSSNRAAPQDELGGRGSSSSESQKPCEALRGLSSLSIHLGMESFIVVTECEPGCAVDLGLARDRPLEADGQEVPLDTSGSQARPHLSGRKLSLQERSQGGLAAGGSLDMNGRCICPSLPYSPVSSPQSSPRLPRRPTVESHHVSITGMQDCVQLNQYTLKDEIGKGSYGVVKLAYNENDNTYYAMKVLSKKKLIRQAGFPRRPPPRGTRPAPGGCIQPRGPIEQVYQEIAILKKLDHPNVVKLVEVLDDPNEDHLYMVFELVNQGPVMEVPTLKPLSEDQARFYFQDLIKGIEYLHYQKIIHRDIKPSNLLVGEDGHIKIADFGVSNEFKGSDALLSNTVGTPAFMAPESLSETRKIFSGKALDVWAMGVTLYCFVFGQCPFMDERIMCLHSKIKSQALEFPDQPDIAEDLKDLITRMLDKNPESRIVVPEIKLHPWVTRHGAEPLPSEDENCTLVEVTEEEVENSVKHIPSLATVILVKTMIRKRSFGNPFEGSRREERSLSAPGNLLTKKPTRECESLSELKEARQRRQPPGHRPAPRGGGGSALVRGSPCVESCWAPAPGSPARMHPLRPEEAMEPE
Excerpt: as §1

[2] = target: T23, RPS6KA5(Kin.Dom.1-N-terminal) (Homo sapiens, UniProt O75582); conditions: compound concentration 10 uM, read-out: Percent Competition
T23 construct: RPS6KA5(Kin.Dom.1-N-terminal); purchased Ambit Biosciences (KINOMEscan)
Excerpt: as §1

CDK9 = target: T24, CDK9 (Homo sapiens, UniProt P50750); conditions: compound concentration 10 uM, read-out: Percent Competition
T24 construct: purchased Ambit Biosciences (KINOMEscan)
Excerpt: as §1

CDK11 = target: T25, CDK11 (Homo sapiens, UniProt Q9BWU1); conditions: compound concentration 10 uM
T25 construct: purchased Ambit Biosciences (KINOMEscan)
Excerpt: as §1

BIKE = target: T26, BIKE (Homo sapiens, UniProt Q9NSY1); conditions: compound concentration 10 uM, read-out: Percent Competition
T26 construct: purchased Ambit Biosciences (KINOMEscan)
Excerpt: as §1

PDPK1 = target: T27, PDPK1 (Homo sapiens, UniProt O15530); conditions: compound concentration 10 uM, read-out: Percent Competition
T27 construct: purchased Ambit Biosciences (KINOMEscan)
Excerpt: as §1

ERK5 = target: T28, ERK5 (Homo sapiens, UniProt Q13164); conditions: compound concentration 10 uM, read-out: Percent Competition
T28 construct: purchased Ambit Biosciences (KINOMEscan)
Excerpt: as §1

ULK1 = target: T29, ULK1 (Homo sapiens, UniProt O75385); conditions: compound concentration 10 uM
T29 construct: purchased Ambit Biosciences (KINOMEscan)
Excerpt: as §1

MLCK = target: T30, MLCK (Homo sapiens, UniProt Q32MK0); conditions: compound concentration 10 uM, read-out: Percent Competition
T30 construct: purchased Ambit Biosciences (KINOMEscan)
Excerpt: as §1

PRKX = target: T31, PRKX (Homo sapiens, UniProt P51817); conditions: compound concentration 10 uM, read-out: Percent Competition
T31 construct: purchased Ambit Biosciences (KINOMEscan)
Excerpt: as §1

SRPK1 = target: T32, SRPK1 (Homo sapiens, UniProt Q96SB4); conditions: compound concentration 10 uM, read-out: Percent Competition
T32 construct: purchased Ambit Biosciences (KINOMEscan)
T32 sequence (Q96SB4 whole entry): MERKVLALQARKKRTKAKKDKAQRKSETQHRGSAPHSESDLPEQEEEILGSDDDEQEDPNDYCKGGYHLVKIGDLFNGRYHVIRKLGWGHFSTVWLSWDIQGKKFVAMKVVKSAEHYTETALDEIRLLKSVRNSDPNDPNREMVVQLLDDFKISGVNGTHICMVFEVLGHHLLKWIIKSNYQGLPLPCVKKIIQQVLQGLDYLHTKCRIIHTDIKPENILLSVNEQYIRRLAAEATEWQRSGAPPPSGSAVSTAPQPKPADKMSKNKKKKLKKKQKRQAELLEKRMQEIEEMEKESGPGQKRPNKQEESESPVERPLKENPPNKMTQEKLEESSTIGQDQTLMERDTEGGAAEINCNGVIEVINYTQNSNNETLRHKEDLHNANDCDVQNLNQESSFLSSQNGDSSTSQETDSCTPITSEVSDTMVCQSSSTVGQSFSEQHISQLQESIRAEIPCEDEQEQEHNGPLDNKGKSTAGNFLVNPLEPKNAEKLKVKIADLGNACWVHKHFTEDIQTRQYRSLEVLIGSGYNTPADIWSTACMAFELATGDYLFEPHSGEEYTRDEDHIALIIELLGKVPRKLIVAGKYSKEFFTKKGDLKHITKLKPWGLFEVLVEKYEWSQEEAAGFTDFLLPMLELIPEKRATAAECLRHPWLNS
Excerpt: as §1

DAPK3 = target: T33, DAPK3 (Homo sapiens, UniProt O43293); conditions: compound concentration 10 uM, read-out: Percent Competition
T33 construct: purchased Ambit Biosciences (KINOMEscan)
Excerpt: as §1

MARK1 = target: T34, MARK1 (Homo sapiens, UniProt Q9P0L2); conditions: compound concentration 10 uM, read-out: Percent Competition
T34 construct: purchased Ambit Biosciences (KINOMEscan)
Excerpt: as §1

MINK = target: T35, MINK (Homo sapiens, UniProt Q8N4C8); conditions: compound concentration 10 uM, read-out: Percent Competition
T35 construct: purchased Ambit Biosciences (KINOMEscan)
Excerpt: as §1

AKT2 = target: T36, AKT2 (Homo sapiens, UniProt P31751); conditions: compound concentration 10 uM, read-out: Percent Competition
T36 construct: purchased Ambit Biosciences (KINOMEscan)
Excerpt: as §1

CDC2L1 = target: T37, CDC2L1 (Homo sapiens, UniProt P21127); conditions: compound concentration 10 uM, read-out: Percent Competition
T37 construct: purchased Ambit Biosciences (KINOMEscan)
Excerpt: as §1

PFTAIRE2 = target: T38, PFTAIRE2 (Homo sapiens, UniProt Q96Q40); conditions: compound concentration 10 uM, read-out: Percent Competition
T38 construct: purchased Ambit Biosciences (KINOMEscan)
Excerpt: as §1

PIP5K1A = target: T39, PIP5K1A (Homo sapiens, UniProt Q99755); conditions: compound concentration 10 uM, read-out: Percent Competition
T39 construct: purchased Ambit Biosciences (KINOMEscan)
T39 sequence (Q99755 whole entry): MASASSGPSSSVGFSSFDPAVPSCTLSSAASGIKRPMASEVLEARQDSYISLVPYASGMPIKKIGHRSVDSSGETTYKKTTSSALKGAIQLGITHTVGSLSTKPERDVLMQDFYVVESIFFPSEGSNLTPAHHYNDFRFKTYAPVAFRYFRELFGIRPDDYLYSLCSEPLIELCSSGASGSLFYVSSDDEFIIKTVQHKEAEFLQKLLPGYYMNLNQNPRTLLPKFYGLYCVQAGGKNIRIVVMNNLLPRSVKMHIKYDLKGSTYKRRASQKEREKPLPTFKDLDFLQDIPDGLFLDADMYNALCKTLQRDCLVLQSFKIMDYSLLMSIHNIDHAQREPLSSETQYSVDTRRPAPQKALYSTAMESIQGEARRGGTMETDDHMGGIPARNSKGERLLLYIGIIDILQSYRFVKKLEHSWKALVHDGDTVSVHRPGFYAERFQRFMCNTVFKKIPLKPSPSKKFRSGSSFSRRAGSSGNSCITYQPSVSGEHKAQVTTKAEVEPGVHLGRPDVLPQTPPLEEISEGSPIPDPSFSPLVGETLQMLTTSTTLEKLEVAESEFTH
Excerpt: as §1

TRKB = target: T40, TRKB (Homo sapiens, UniProt Q16620); conditions: compound concentration 10 uM, read-out: Percent Competition
T40 construct: purchased Ambit Biosciences (KINOMEscan)
Excerpt: as §1

LIMK2 = target: T41, LIMK2 (Homo sapiens, UniProt P53671); conditions: compound concentration 10 uM, read-out: Percent Competition
T41 construct: purchased Ambit Biosciences (KINOMEscan)
Excerpt: as §1

- inhibition at 10 µM (TAK1): < 50%
- inhibition at 10 µM (TEC): < 50%
- Percent Competition (PRKR): <50%
- inhibition at 10 µM (MERTK): < 50%
- inhibition at 10 µM (ACVR2A): < 50%
- inhibition at 10 µM [1]: < 50%
- inhibition at 10 µM (IKK-beta): < 50%
- inhibition at 10 µM (MAP4K2): < 50%
- inhibition at 10 µM (NEK1): < 50%
- inhibition at 10 µM (PHKG1): < 50%
- inhibition at 10 µM (FES): < 50%
- inhibition at 10 µM (CHEK2): < 50%
- inhibition at 10 µM (DMPK): < 50%
- inhibition at 10 µM (DCAMKL3): < 50%
- inhibition at 10 µM (SIK2): < 50%
- inhibition at 10 µM (PLK1): < 50%
- inhibition at 10 µM (PIK3C2B): < 50%
- inhibition at 10 µM (AAK1): < 50%
- inhibition at 10 µM (ANKK1): < 50%
- inhibition at 10 µM (PRKG1): < 50%
- inhibition at 10 µM (PIK3CG): < 50%
- inhibition at 10 µM (CAMKK2): < 50%
- inhibition at 10 µM [2]: < 50%
- inhibition at 10 µM (CDK9): < 50%
- Percent Competition (CDK11): <50%
- inhibition at 10 µM (BIKE): < 50%
- inhibition at 10 µM (PDPK1): < 50%
- inhibition at 10 µM (ERK5): < 50%
- Percent Competition (ULK1): <50%
- inhibition at 10 µM (MLCK): < 50%
- inhibition at 10 µM (PRKX): < 50%
- inhibition at 10 µM (SRPK1): < 50%
- inhibition at 10 µM (DAPK3): < 50%
- inhibition at 10 µM (MARK1): < 50%
- inhibition at 10 µM (MINK): < 50%
- inhibition at 10 µM (AKT2): < 50%
- inhibition at 10 µM (CDC2L1): 91%
- inhibition at 10 µM (PFTAIRE2): < 50%
- inhibition at 10 µM (PIP5K1A): < 50%
- inhibition at 10 µM (TRKB): < 50%
- inhibition at 10 µM (LIMK2): < 50%
SMILES: Fc1ccc(-c2c(-c3ccncc3)[nH]c3nccnc23)cc1 [RO1155697-000-005]
